Test results as given in PMC5590679 (Journal of medicinal chemistry, 2017).
Converted amounts (≈) assume the structure as drawn. Where two headings read alike, the source gives them in different places.

Legend:
[1] = system: Mtb H37Rv; conditions: cited from earlier work
[2] = system: Mtb BioA underexpression strain (BioA-UE); assay: microbe, parasite or virus in culture; assay type: cell-based, Mycobacterium tuberculosis
[3] = system: Mtb H37Rv; assay: microbe, parasite or virus in culture; assay type: cell-based, Mycobacterium tuberculosis; conditions: for MIC50 WT+biotin: Mtb H37Rv with 1 μM supplemental biotin; for MIC: Mycobacterium tuberculosis, H37RV
[4] = MIC that results in 50% inhibition

For `CC(=O)c1ccc(N2CCN(C(=O)c3ccc4c(c3)OCO4)CC2)cc1` [Compound 6, 1-(4-(4-(Benzo[d][1,3]dioxole-5-carbonyl)piperazin-1-yl)phenyl)-ethanone], the “activity against whole-cell Mtb in biotin-supplemented medium” value [1] is given as “no observed activity”, the MIC ([2]; Mycobacterium tuberculosis, read-out: MIC that results in 90% inhibition, BioA-UE) is given as 1.7 µM (≈ 0.599 µg/mL) and the “MIC50 WT+biotin” value [3, 4] is given as over 50 µM. It also gave an MIC ([3]; read-out: MIC that results in 90% inhibition, WT+biotin) of over 50 µM and an MIC ([3]; read-out: MIC that results in 90% inhibition, WT-biotin) of 23.4 µM (≈ 8.25 µg/mL).
In the case of `CC(=O)c1ccc(N2CCN(C(=O)c3ccc(Cl)c(Cl)c3)CC2)cc1` [Compound 9, 1-(4-(4-(3,4-Dichlorobenzoyl)piperazin-1-yl)phenyl)ethanone], the “fold loss in potency against WT Mtb” value ([3]; biotin-free medium, relative to 6) is reported as 2 fold.
In the case of `CC(=O)c1cccc(N2CCN(C(=O)c3cccc(Cl)c3)CC2)c1` [Compound 30, 1-(3-(4-(3-Chlorobenzoyl)piperazin-1-yl)phenyl)ethanone], the “fold loss in activity compared to para-acetyl 12” value [3] is reported as 10–50 fold.
For `O=C1CCc2cc(N3CCN(C(=O)c4ccc5c(c4)OCO5)CC3)ccc21` [Compound 36, 5-(4-(Benzo[d][1,3]dioxole-5-carbonyl)piperazin-1-yl)-2,3-dihydro-1H-inden-1-one], the MIC ([3]; read-out: minimum inhibitory concentration (MIC) against WT Mtb) was 1.7 µM (≈ 0.619 µg/mL).
In the case of `CC(=O)c1ccc(-c2cn(Cc3cccc(Cl)c3)nn2)cc1` [Compound 37, 1-(4-(1-(3-Chlorobenzyl)-1H-1,2,3-triazol-4-yl)phenyl)ethanone], the “antitubercular activity (in words)” value [3] is reported as “inactive”.
For `CC(=O)c1ccc(-c2cn(Cc3cccc(Cl)c3)nn2)s1` [Compound 38, 1-(5-(1-(3-Chlorobenzyl)-1H-1,2,3-triazol-4-yl)thiophen-2-yl)-ethanone], the “antitubercular activity (in words)” value [3] was “inactive”.
For `CC(=O)c1ccc(N2CCC(C(=O)c3ccc4c(c3)OCO4)CC2)cc1` [Compound 40, 1-(4-(4-(Benzo[d][1,3]dioxole-5-carbonyl)piperidin-1-yl)phenyl)-ethanone], the “antitubercular activity (in words)” value [3] was “completely inactive”.
With “(3-Chlorophenyl)(4-(5-methoxypyridin-2-yl)piperazin-1-yl)-methanone [Compound 22]” the “MIC50 BioA-UE” value ([2]; MIC that results in 50% inhibition, […]) was 24.4 µM, the “MIC50 WT+biotin” value [3, 4] was over 50 µM and the “MIC50 WT-biotin” value ([3]; MIC that results in 50% inhibition, Mtb H37Rv without supplemental biotin) was 22.0 µM.
